The values that follow come from BindingDB's records for doi:10.1016/s0960-894x(02)00934-4 (Southern Research Institute, 2003).

This assay is described as follows: Antagonist activity on agonist stimulated [35S]GTP-gamma-S, binding in guinea pig caudate membranes (10 uM SNC-80 as the agonist ligand for delta-receptor). (In general: Binding of GTPγS marks nucleotide exchange on a G protein.)

Usually Ki stands for a measure of affinity in units of concentration, obtained from inhibition or displacement. Low values mean higher affinity, high ones lower affinity. `NC(N)=Nc1cnc2c(c1)C[C@@]1(O)[C@H]3Cc4ccc(O)c5c4[C@@]1(CCN3CC1CC1)[C@H]2O5` [6-amino(imino)methylamino-19-cyclopropylmethyl-11-oxa-8,19-diazahexacyclo[10.9.1.01,10.02,18.04,9.016,22]docosa-4(9),5,7,12,14,16(22)-hexaene-2,13-diol; ditrifluoracetic acid] returned a Ki of 6.5 nM.
In the case of `Oc1ccc2c3c1O[C@H]1c4ncc(-n5cccc5)cc4C[C@@]4(O)[C@@H](C2)N(CC2CC2)CC[C@]314` [19-cyclopropylmethyl-6-(1H-1-pyrrolyl)-11-oxa-8,19-diazahexacyclo[10.9.1.01,10.02,18.04,9.016,22]docosa-4(9),5,7,12,14,16(22)-hexaene-2,13-diol] it was 0.4 nM.
